Measured values from patent US20240373851A1, “PEST CONTROL COMPOSITION AND PEST CONTROL METHOD” (SUMITOMO CHEMICAL COMPANY, LIMITED, priority 2021, published 2024).

Key:
Assay type in all cases: in vivo
[1] = tested on: German cockroaches (Blattella germanica); assay: Test Example 6: control test against German cockroaches, spray in chamber; conditions: adult German cockroaches; 1.5 mL sprayed; concentration [%]: isocycloseram 0.05, imiprothrin 0.01, lambda-cyhalothrin 0.0025, alone or mixed; 60 minutes after spraying
Protocol: (§1) Next, the usefulness of the inventive composition for controlling pests will be indicated by Test Examples. In general, the control effect to be expected when treated with a mixture obtained by mixing given two or three types of active ingredient compounds is determined by the Colby's calculation equation represented by the following [Equation 1] and [Equation 2].
(§2) [formula] • P: moribund and mortal rates (%) when treated with an active ingredient compound X in the concentration of m [ppm] • Q: moribund and mortal rates (%) when treated with an active ingredient compound Y in the concentration of n [ppm] • EA: moribund and mortal rates (%) when treated with an active ingredient compound X in the concentration of m [ppm] and an active ingredient compound Y in the concentration of n [ppm] (hereinafter referred to as expected value A) […]
(§3) Regarding the synergistic effect of three types of the active ingredient compounds, in case where the moribund and mortal rates (%) when actually treated with a mixture obtained by mixing three types of the active ingredient compounds exceed the expected value A calculated by using the moribund and mortal rates (%) when actually treated with a mixture obtained by mixing two types of the active ingredient compounds among three types thereof, and the moribund and mortal rates (%) calculated when actually treated the remaining one type of the active ingredient compound, or the expected value B (%) calculated from the moribund and mortal rates (%) when actually treated with each of three types of the active ingredient compounds alone, it was determined that the synergistic effect exists. […]

[2] = tested on: German cockroaches (Blattella germanica); assay: Test Example 7: control test against German cockroaches, spray in chamber; conditions: adult German cockroaches; 1.5 mL sprayed; concentration [%]: isocycloseram 0.05, imiprothrin 0.01, cypermethrin 0.01, alone or mixed; 120 minutes after spraying
Protocol: as §1, §2, §3

[3] = tested on: German cockroaches (Blattella germanica); assay: Test Example 11: control test against German cockroaches, spray in chamber; conditions: adult German cockroaches; 1.5 mL sprayed; concentration [%]: isocycloseram 0.01, imiprothrin 0.01, permethrin 0.05, alone or mixed; 120 minutes after spraying
Protocol: as §1, §2, §3

[4] = tested on: German cockroaches (Blattella germanica); assay: Test Example 4: control test against German cockroaches, spray in chamber; conditions: adult German cockroaches; 1.5 mL sprayed; concentration [%]: nicofluprole 0.01, imiprothrin 0.01, deltamethrin 0.0002, alone or mixed; 45 minutes after spraying
Protocol: as §1, §2, §3

[5] = tested on: German cockroaches (Blattella germanica); assay: Test Example 8: control test against German cockroaches, spray in chamber; conditions: adult German cockroaches; 1.5 mL sprayed; concentration [%]: nicofluprole 0.01, imiprothrin 0.01, phenothrin 0.1, alone or mixed; 45 minutes after spraying
Protocol: as §1, §2, §3

[6] = tested on: German cockroaches (Blattella germanica); assay: Test Example 10: control test against German cockroaches, spray in chamber; conditions: adult German cockroaches; 1.5 mL sprayed; concentration [%]: nicofluprole 0.01, imiprothrin 0.01, permethrin 0.05, alone or mixed; 60 minutes after spraying
Protocol: as §1, §2, §3

[7] = tested on: German cockroaches (Blattella germanica); assay: Test Example 5: control test against German cockroaches, spray in chamber; conditions: adult German cockroaches; 1.5 mL sprayed; concentration [%]: nicofluprole 0.01, imiprothrin 0.01, cyfluthrin 0.0002, alone or mixed; 45 minutes after spraying
Text: (§4) Next, the usefulness of the inventive composition for controlling pests will be indicated by Test Examples.
(§5) (hereinafter referred to as expected value A)
(§6) (hereinafter referred to as expected value B)
(§7) In a plastic cup (diameter: 12.4 cm, height: 10.2 cm) lined with a filter paper, ten adult German cockroaches (Blattella germanica) (five males and five females each) or eleven adult German cockroaches were released, and the plastic cup was placed in the center of the bottom of a box-shaped chamber (46 cm×46 cm×70 cm in height). From the height of 60 cm, 1.5 mL of each of formulations prepared by dissolving a single agent of any one of nicofluprole, imiprothrin and cyfluthrin, or a mixed agent of two or more thereof in a mixture of isopropyl alcohol and Isopar M at a mixing ratio of 1:9 was sprayed under a spray pressure of 0.041 MPa. After a lapse of 45 minutes from spraying, the number of dead and moribund individuals was examined, and moribund and mortal rates (%) were determined by the above equation 3. The test was performed through two replicates. Dead individuals are completely immobile individuals, and moribund individuals are individuals who cannot get up when turned on their backs.

[8] = tested on: German cockroaches (Blattella germanica); assay: Test Example 2: control test against German cockroaches, spray in chamber; conditions: adult German cockroaches; 1.5 mL sprayed; concentration [%]: nicofluprole 0.01, imiprothrin 0.01, cypermethrin 0.01, alone or mixed; 120 minutes after spraying
Protocol: as §1, §2, §3

[9] = tested on: German cockroaches (Blattella germanica); assay: Test Example 9: control test against German cockroaches, spray in chamber; conditions: adult German cockroaches; 1.5 mL sprayed; concentration [%]: broflanilide 0.02, imiprothrin 0.01, permethrin 0.05, alone or mixed; 420 minutes after spraying
Text: as §4, §5, §6
as §7, with “each)” for “each) or eleven adult German cockroaches”, “broflanilide,” for “nicofluprole,”, “permethrin,” for “cyfluthrin,”, “420” for “45”

| SMILES | Moribund and mortal rates [%] after 60 minutes [1] | Moribund and mortal rates [%] after 120 minutes [2] | Moribund and mortal rates [%] after 120 minutes [3] | Moribund and mortal rates [%] after 45 minutes [4] | Moribund and mortal rates [%] after 45 minutes [5] | Moribund and mortal rates [%] after 60 minutes [6] | Moribund and mortal rates [%] after 45 minutes [7] | Moribund and mortal rates [%] after 120 minutes [8] | Moribund and mortal rates [%] after 420 minutes [9] |
| --- | --- | --- | --- | --- | --- | --- | --- | --- | --- |
| CCN1OCC(NC(=O)c2ccc(C3=NOC(c4cc(Cl)c(F)c(Cl)c4)(C(F)(F)F)C3)cc2C)C1=O (centres unmarked) [Isocycloseram, isocycloseram] | 5% | 10% | 5% | – | – | – | – | – | – |
| CN(C(=O)c1cc(-c2cnn(-c3c(Cl)cc(C(F)(C(F)(F)F)C(F)(F)F)cc3Cl)c2)cnc1Cl)C1CC1 [Nicofluprole, nicofluprole] | – | – | – | 0% | 0% | 0% | 0% | 0% | – |
| CC1(C)C(C=C(Cl)Cl)C1C(=O)OCc1cccc(Oc2ccccc2)c1 (centres unmarked) [Permethrin, permethrin] | – | – | 5% | – | – | 5% | – | – | 5% |
